Data from ChEMBL document CHEMBL3886657, “Imidazopyridin-2-one derivatives” (2016).

Biological target: Metabotropic glutamate receptor 2 (Homo sapiens, UniProt Q14416)
Test: [35S]-GTPγS Assay: The stimulation of [35S]-GTPγS binding is a common functional assay to monitor Gαi-coupled receptor in native and recombinant receptor membrane preparation. Membrane from cells stably expressing hmGlu2 CHO-K1 (50 μg) are incubated in a 96 well plate for 1 hour in the presence of GTPγS35 (0.05 nM), GDP (5 μM) and compounds. The reaction is stopped by rapid filtration over Unifilter GF/B plate (Packard, Bioscience, Meriden Conn.) using a 96-well cell harvester (Brandel Gaithersburg, Md.). The filter plates are counted using Topcount counter (Packard, Bioscience, Meriden Conn., USA). When compounds are evaluated as potentiators they are tested in the presence of glutamate (1 μM).

Metabotropic glutamate receptor 2, sequence (Q14416 whole entry): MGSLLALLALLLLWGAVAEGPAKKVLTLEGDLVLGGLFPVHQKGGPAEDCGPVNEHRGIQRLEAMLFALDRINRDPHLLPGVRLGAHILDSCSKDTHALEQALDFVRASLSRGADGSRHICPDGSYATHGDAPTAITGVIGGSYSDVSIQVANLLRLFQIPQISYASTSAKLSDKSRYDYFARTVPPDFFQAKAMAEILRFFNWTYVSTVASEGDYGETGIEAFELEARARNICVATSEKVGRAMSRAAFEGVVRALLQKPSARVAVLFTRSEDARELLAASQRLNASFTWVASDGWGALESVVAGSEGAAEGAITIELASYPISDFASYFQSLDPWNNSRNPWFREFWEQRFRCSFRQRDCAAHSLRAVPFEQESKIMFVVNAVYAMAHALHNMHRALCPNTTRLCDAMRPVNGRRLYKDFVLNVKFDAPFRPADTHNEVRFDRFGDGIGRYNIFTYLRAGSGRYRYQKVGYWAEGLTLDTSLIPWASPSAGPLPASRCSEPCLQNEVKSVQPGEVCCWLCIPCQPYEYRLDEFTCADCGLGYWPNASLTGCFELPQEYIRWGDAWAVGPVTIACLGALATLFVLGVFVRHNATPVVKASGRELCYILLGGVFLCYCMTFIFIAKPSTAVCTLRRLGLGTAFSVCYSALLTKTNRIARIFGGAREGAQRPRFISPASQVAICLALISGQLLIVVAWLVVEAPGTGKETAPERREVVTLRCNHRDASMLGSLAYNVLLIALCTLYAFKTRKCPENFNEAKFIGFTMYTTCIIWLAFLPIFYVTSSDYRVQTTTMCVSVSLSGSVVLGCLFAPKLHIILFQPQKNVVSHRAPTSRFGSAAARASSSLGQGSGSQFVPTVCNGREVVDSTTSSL

| Structure (SMILES) | EC50 |
| --- | --- |
| Cn1c(=O)n(CC(C)(C)C)c2ccc(C3=CC4CCC3CN4C(=O)C3CC3)nc21 (configuration not stated) | 215 nM |
| Cn1c(=O)n(CC(C)(C)C)c2ccc(C3=CC4CCC3CN4C(=O)c3ncco3)nc21 (configuration not stated) | 17.9 nM |
| Cn1c(=O)n(CC2CC2(F)F)c2ccc(C3=CC4CCC3CN4C(=O)c3ccon3)nc21 (configuration not stated) | 26.6 nM |
| CC1C(c2ccc3c(n2)N(C)S(=O)(=O)N3CC2CC2(F)F)C1C(C)(C)O (configuration not stated) | 40.6 nM |
| Cn1c(=O)n(CC(C)(C)C)c2ccc(C3=CC4CCC3CN4C(=O)c3csnn3)nc21 (configuration not stated) | 69.3 nM |
| Cn1c(=O)n(CC(C)(C)C)c2ccc(C3=CC4CN(C(=O)CO)CC4C3)nc21 (configuration not stated) | 2820 nM |
| Cn1c(=O)n(CC2CC2(F)F)c2ccc(C3=CC4CN(C(=O)c5ncco5)CC4C3)nc21 (configuration not stated) | 248 nM |
| Cn1c(=O)n(CC(C)(C)C)c2ccc(C3=CC4CN(C(=O)c5ncco5)CC4C3)nc21 (configuration not stated) | 54.7 nM |
| Cn1c(=O)n(CC(C)(C)C)c2ccc(C3=CC4CCC3CN4C(=O)Cn3cncn3)nc21 (configuration not stated) | 115 nM |
| CN1c2nc(C3=CC4CN(C(=O)C(C)(C)O)CC4C3)ccc2N(CC2CC2(F)F)S1(=O)=O (configuration not stated) | 88.6 nM |
| Cn1c(=O)n(CC(C)(C)C)c2ccc(C3=CC4CN(C(=O)C5(O)CCC5)CC4C3)nc21 (configuration not stated) | 51.4 nM |
| Cn1c(=O)n(CC(C)(C)C)c2ccc(C3=CC4CCC3CN4C(=O)c3cccnc3)nc21 (configuration not stated) | 299 nM |
